From US5922775A, “Method of treating malignant tumors with ketone thyroxine analogues having no significant hormonal activity” (priority 1997, dated 1999)

Legend:
human cancer cells = conditions: cited from earlier work; for cytostatic / cytocidal activity: cellular assays and in vivo
[1] = tested on: microtubule protein (MTP); test: Microtubule assembly (MTP polymerization) in vitro, optical test at 350 nm; format: biochemical, bovine or rabbit (brain); conditions: for Percent inhibition of intitial velocity (microtubule assembly in vitro): 10 μM drug, GTP 1 mM, 37° C., averages of duplicate assay; for effect of substitution on inhibition of MTP polymerization: compared with DIME; for inhibitory action on MTP assembly (comparison, FIG. 2): drug concentrations up to 20 μM; for order of potency on MTP assembly (FIG. 3): zero to 10 μM drug, lowered GTP concentration (10 μM)
Excerpt: This inhibition is critically dependent on the concentration of GTP. The quantitative correlation between the concentrations of DIME and GTP, under conditions of a linear rate of MTP polymerization, follows Michaelis-Menten kinetics and the inhibition portrays a "mixed" type, where km for GTP and Vmax are altered simultaneously. Chemical analogues of DIME inhibit MTP polymerization parallel to their antitumorigenic action in vivo. The MTP site is one of the early cellular response sites of DIME.
J. Oncol. Abnormal spindle structures could be the result of DIME-MTP interaction or reactions of DIME with components of the microtubule organizing center or with as yet undefined systems sequentially or in concert. Since time-dependent quantitative analysis of the MTP system in situ is unsuitable for initial velocity measurement we adapted the in vitro assembly system of neurotubules as a model for a quantitative analysis of the interaction of DIME with MTP. […] The time course of MTP assembly consists of initiation and propagation and termination steps, Gaskin, et al., 1974, "Turbidimetric studies of the in vitro assembly and disassembly of porcine neurotubules", J. Mol. Biol. 89:737-758. The rate of propagation under defined conditions is sufficiently linear to permit kinetic analysis, that can be evaluated with respect DIME and GTP concentrations. As we show here the inhibition of MTP assembly by DIME occurs in the same range of drug concentration as required to inhibit tumorigonesis in vivo, or to inhibit cell replication or induce eventual cell death; Mendeleyev, et al., 1997. "Structural specificity and tumoricidal action of methyl-3,5-diiodo-4-(4'-methoxyphenoxy)benzoate (DIME)" Int. J. Oncol., 10:689-695. Therefore the DIME-MTP interaction is most probably a component of the apparently pleiotropic cellular mechanism of action of DIME.
Preparation of MTP and an optical test for polymerization was adopted from published methods, Gaskin, et al., 1974, "Turbidimetric studies of the in vitro assembly and disassembly of porcine neurotubules", J. Mol. Biol. 89:737-758; Tiwari, et al., 1993, "A pH and temperature-dependent cycling method that doubles the yield of microtubule protein", Anal. Biochem. 215:96-103. Bovine or rabbit brain was homogenized in an equal volume of ice cold buffer containing 100 mM Pipes/K^+ (pH 7.4), 4 mM EGTA. 1 mM MgCl2, 0.5 mM DTT and 0.1 mM PMSF, and centrifuged at 39,000 g for 1 hour at 4° C. To the supernatant, DMSO (8% final concentration) and GTP (1 mM final concentration) were added, followed by incubation at 37° C. for 30 minutes. Microtubules were pelleted at 100,000 g at 37° C. for 30 minutes. The pellets were incubated on ice for 15 minutes, followed by resuspension in ice cold PEM buffer (100 mM Pipes/K+ (pH 6.9), 1 mM EGTA, 1 mM MgCl2). This warm polymerization and cold depolymerization cycle was repeated once more and the cold, resuspended monomeric MTP (8-10 mg/ml protein) was used for the optical test for polymerization kinetics. Both rabbit or bovine brain yielded identical MTP preparations.
The polymerization reaction was started by the addition of […] of MTP solution (equivalent to 0.8-1.0 mg protein) and initial linear rates of increase in absorbance at 350 nm followed and recorded at 37° C. in a Perkin-Elmer 552 double beam spectrophotometer, equipped with a thermostatically controlled cuvette holder.
It is apparent that the rate of MTP polymerization proceeds in a linear manner, thus conditions for maximal polymerization rates as defined by Berne, B, 1974, "Interpretation of light scattering from long rods", J. Mol. Biol. 89:755-758 appear fulfilled. Therefore it is possible to determine the quantitative correlation between [DIME] and [GTP] by comparing the linear rate in the presence of varying drug and activator concentrations.
The assay system consisted of 240 μl of PEM buffer containing 8% DMSO […]
(added in 3 μl), or solvent control and 0.6 mg MTP (60 μl). […]

E-ras 20 cells = conditions: carboxylic acid vs methyl ester; cited from earlier work
mammary cancer cells = test: Colony formation by mammary cancer cells (FIG. 1); format: cell-based, human; conditions: DIME vs DIPE
Excerpt: FIG. 1 is a graph illustrating the cell killing effects of DIME and DIPE on mammary cancer colonies;
The effect of DIME and DIPE on colony formation by mammary cancer cells is illustrated in FIG. 1, where the results are superimposable, confirming that cytocidal action of DIME and DIPE are indistinguishable.

[2] = tested on: human mammary cancer cells (MDA-MB-231); test: Growth of human mammary cancer cells (Table 2 A); format: cell-based; conditions: 2 μM
Excerpt: (§1) The effects of these three substances on the growth of human mammary cancer cells (MDA-MB-231) and human lung cancer cells (A 549) are summarized in Table 2.
In section (a) of Table 2 the effects of DIME, DIPE and DIPP on the growth of mammary cancer cells, assayed at 48 and 72 hrs, is shown. […] The slightly lesser efficacy of DIPP could be predicted from earlier results obtained with DIME analogs (International Journal of Oncology, 1997, 10, 689-695, FIG. 1) where we have shown that extending the methyl to ethyl substitution (on the carboxyl ester) diminishes cytotoxicity against tumor cells. A similar phenomenon occurs when DIPE is extended to DIPP (i.e. from the ethanone to the propanone).
(§2) (×10^3) Cell number per 2 cm^2

cellular esterases = test: Stability against cellular esterases
Excerpt: Moreover, amide analogs of DIME, having an NH2 or a substituted amino group, may be subject to hydrolysis catalyzed by cellular amidases. Since the hydrolysis product of such a hydrolysis is a carboxylic acid, the same decrease in efficacy can result. In order to decrease the chemical lability in the DIME pharmacophore structure, ketone analogues of DIME may be used.
A more detailed kinetic comparison of DIME, DIPE and DIPP on the kinetics of MTP assembly, in a concentration range of zero to 10 μM drug and a louvered GTP concentration (10 μM), is shown in FIG. 3.

[3] = tested on: human lung cancer cells (A 549); test: Growth of human lung cancer cells (Table 2 B); format: cell-based
Excerpt: as §1, §2

[4] = tested on: non-malignant mouse pituitary adenoma; conditions: cited from earlier work
Rana pipiens tadpoles = conditions: tadpole metamorphosis; cited from earlier work
thyroid iodine uptake = conditions: rat, in vivo; cited from earlier work

For `COC(=O)c1cc(I)c(Oc2ccc(OC)cc2Cl)c(I)c1` [2'-chloro analogue of DIME], the “maximal inhibitory action on growth as compared to DIME” value (human cancer cells; human cancer cells) is given as “about 25%”.

In the case of `CCCOc1ccc(Oc2c(I)cc(C(=O)OC)cc2I)cc1` [4'-propoxy homologue], the “cytostatic / cytocidal activity” value (human cancer cells) is listed as “completely inactive”.

For `CCOc1ccc(Oc2c(I)cc(C(=O)OC)cc2I)cc1` [Compound 2], the “Percent inhibition of intitial velocity (microtubule assembly in vitro)” value (“Percent inhibition of intitial velocity” for short) [1] is given as 76%, the “effect of substitution on inhibition of MTP polymerization” value [1] is given as “progressively diminishes inhibition of MTP polymerization” and the “maximal cytocidal action as compared to DIME” value (human cancer cells; human cancer cells) is given as 25-30%.

In the case of `CCCCOc1ccc(Oc2c(I)cc(C(=O)OC)cc2I)cc1` [Compound 4], the “Percent inhibition of intitial velocity” value [1] is reported as 8% and the “effect of substitution on inhibition of MTP polymerization” value [1] is reported as “progressively diminishes inhibition of MTP polymerization”.

In the case of `CCOC(=O)c1cc(I)c(Oc2ccc(OC)cc2)c(I)c1` [Compound 5], the “Percent inhibition of intitial velocity” value [1] is listed as 35% and the “cytostatic / cytocidal activity” value (human cancer cells) is listed as “completely inactive”.

For `COc1ccc(Oc2c(I)cc(C(=O)O)cc2I)cc1` [Compound 6], the “Percent inhibition of intitial velocity” value [1] is listed as 0%, the “effect of substitution on inhibition of MTP polymerization” value [1] is listed as “completely abolishes the inhibitory effect on MTP polymerization” and the “efficacy against tumor cells relative to ester” value (human cancer cells; carboxylic acid from hydrolysis of the ester) is listed as “much less efficacy against tumor cells than the ester”. The antitumorigenic action (E-ras 20 cells) was “only halves the antitumorigenic action”.

With `COc1ccc(Oc2c(I)cc(C(N)=O)cc2I)cc1` [Compound 7] the “Percent inhibition of intitial velocity” value [1] was 43%.

For `COc1ccc(Oc2c(I)cc(C(=O)N(C)C)cc2I)cc1` [Compound 9], the “Percent inhibition of intitial velocity” value [1] was 6%.

For `COc1ccc(Oc2c(I)cc(C(C)=O)cc2I)cc1` [DIPE, 1-[3,5-diiodo-4-(4'-methoxyphenoxy)-phenyl]-ethanone], the “effect on colony formation (FIG. 1)” value (mammary cancer cells) was “superimposable”, the Cell number ([2]; 48 hours, control 150) was 55 ×10^3 cell number per 2 cm^2 w and the Cell number ([2]; 72 hours, control 300) was 60 ×10^3 cell number per 2 cm^2 w. For the same compound, the stability against esterases (cellular esterases) was “absence of esterase action”, the Cell number ([3]; 2 μM, 48 hours, control 110) was 78 ×10^3 cell number per 2 cm^2 w and the Cell number ([3]; 2 μM, 72 hours, control 190) was 81 ×10^3 cell number per 2 cm^2 w. For the same compound, the Cell number ([3]; 5 μM + BNPP 150 μM (esterase inhibitor), 48 hours, control 110) was 37 ×10^3 cell number per 2 cm^2 w, the Cell number ([3]; 5 μM + BNPP 150 μM (esterase inhibitor), 72 hours, control 190) was 38 ×10^3 cell number per 2 cm^2 w and the Cell number ([3]; 5 μM, 48 hours, control 110) was 38 ×10^3 cell number per 2 cm^2 w. The Cell number ([3]; 5 μM, 72 hours, control 190) was 40 ×10^3 cell number per 2 cm^2 w, the “effect of esterase inhibitor BNPP on cytocidal action” value ([3]; lung cancer cells, with BNPP) was “no supportive effect” and the “inhibitory action on MTP assembly (comparison, FIG. 2)” value [1] was “similar”. The “order of potency on MTP assembly (FIG. 3)” value [1] was “DIME>DIPE>DIPP”.

For `CCC(=O)c1cc(I)c(Oc2ccc(OC)cc2)c(I)c1` [DIPP, 1-[3,5-diiodo-4-(4'-methoxyphenoxy)-phenyl]-1-propanone], the Cell number ([2]; 48 hours, control 150) was 90 ×10^3 cell number per 2 cm^2 w, the Cell number ([2]; 72 hours, control 300) was 145 ×10^3 cell number per 2 cm^2 w and the “effectiveness relative to DIME and DIPE” value ([2]; 72 hrs) was “about one half as effective as the other two drugs”. The “inhibitory action on MTP assembly (comparison, FIG. 2)” value [1] was “similar” and the “order of potency on MTP assembly (FIG. 3)” value [1] was “DIME>DIPE>DIPP”.

For `NC(Cc1cc(I)c(Oc2cc(I)c(O)c(I)c2)c(I)c1)C(=O)O` (stereo not drawn) [thyroxine], the “inhibition of growth of non-malignant pituitary tumor” value [4] is given as “depress growth of non-malignant mouse pituitary thyrotropic tumors”, the “cell differentiating / metamorphogenic activity” value (Rana pipiens tadpoles) is given as “induces cell differentiation” and the “suppression of uptake of iodine by the thyroid” value (thyroid iodine uptake) is given as “suppresses uptake of iodine by the thyroid”.
